Test results reported in patent publication US7820667B2, “Methods of treating hypertension” (Daiichi Sankyo Company, Limited, priority 2005, dated 2010).

How the values were obtained:
[1] = as reported in Japanese Patent Public Disclosure No. 25323/84; cited from earlier work
[2] = test system: rats; experiment: Acute toxicity to rats; format: in vivo
[3] = test system: DOCA-salt hypertension rats; experiment: Blood pressure by tail-cuff method in DOCA-salt hypertension rats; format: in vivo, Sprague-Dawley rats; details: BH4 10 mg/kg b.w./day orally
Description: One kidney was removed from each of 8-week-old Sprague-Dawley rats (supplied from Charles River) except for a control group. […] Blood pressure was measured by the tail-cuff method at the start of experiment and 2, 4 and 5 weeks.

[4] = test system: DOCA-salt hypertension rats; experiment: NO2/NO3 in urine (Griess method) in DOCA-salt hypertension rats; format: in vivo, Sprague-Dawley rats; details: BH4 10 mg/kg b.w./day orally
Description: One kidney was removed from each of 8-week-old Sprague-Dawley rats (supplied from Charles River) except for a control group. […] The measurement was carried out using Nitrate-Nitrite assay kit, (kit No. 780001, Cyman Chemical Company) according to the Griess method. The values of NO2/NO3 in urine means the activity of NOS, namely, higher the value, higher the activity.

[5] = test system: DOCA-salt hypertension rats; experiment: Biopterin (BP) in urine by HPLC in DOCA-salt hypertension rats; format: in vivo, Sprague-Dawley rats; details: BH4 10 mg/kg b.w./day orally
Text: (§1) One kidney was removed from each of 8-week-old Sprague-Dawley rats (supplied from Charles River) except for a control group.

[6] = Body weight of DOCA-salt hypertension rats; format: in vivo, Sprague-Dawley rats; details: for Body weight: DOCA-salt hypertension rats, BH4 10 mg/kg b.w./day orally
Text: as §1

[7] = test system: endothelial NOS (e-NOS); experiment: Immunostaining of renal tissue NOS (anti-e-NOS antibody); format: in vivo, Sprague-Dawley rats; details: renal tissues, DOCA-salt hypertension rats, BH4 10 mg/kg b.w./day orally, end of observation (5 weeks)
Text: as §1
(§2) The expression of endothelial NOS (e-NOS) and brain NOS (b-NOS) in renal tissues was examined in the sections of the isolated frozen renal tissues by immunostaining with anti-e-NOS and anti-b-NOS antibodies (Affinity Bioreagents), respectively.

[8] = test system: brain NOS (b-NOS); experiment: Immunostaining of renal tissue NOS (anti-b-NOS antibody); format: in vivo, Sprague-Dawley rats; details: renal tissues, DOCA-salt hypertension rats, BH4 10 mg/kg b.w./day orally, end of observation (5 weeks)
Text: as §1, §2

[9] = test system: e-NOS mRNA; experiment: Measurement of NOS mRNA expression in renal tissues (RT-PCR, Southern hybridization); format: in vivo, Sprague-Dawley rats; details: renal cortex, DOCA+BH4 group as compared with DOCA group, normalized against MDH, FIG. 4
Description: as §1
Extraction of RNA from renal tissues was performed by the guanidium/cesium chloride extraction method.
Namely, a small amount of tissues collected from renal cortex of the isolated kidney was added immediately to a lysis solution 4M guanidinium thiocyanate and homogenized by a glass/Teflon homogenizer. This lysate was overlaid on 5.7M cesium chloride and centrifuged at 80,000 rpm for 2 hours, then the precipitate was dissolved in 0.1% diethyl pyrocarbonate (DEP) solution. This solution was precipitated with 2.5M ammonium acetate and ethanol at −20° C. for one hour and centrifuged at 10,000 rpm at 4° C. for 20 minutes to give a precipitate. […]
Specifically, the RT reaction solution was added to a mixture of 5′- and 3′-primers for each of e-NOS to be detected and for malate dehyadrogenase (MDH) used as an internal standard, PCR buffer, 2.5 mM dNTP mixed solution and Taq DNA polymerase. […]
PCR products were electrophoresed on 5% polyacrylamide gel and NOS mRNA expression was measured by Southern hybridization.
Specifically, the PCR reaction solution was electrophoresed on 5% polyacrylamide and then, the gel was transferred to membrane filters. […] Then, autoradiography was run at −70° C. for several hours and the exposed autoradiograms were analyzed by a densitometer. […]

[10] = test system: DOCA-salt SHRs; experiment: Blood pressure by tail-cuff method in DOCA-salt SHR; format: in vivo; details: BH4 10 mg/kg b.w./day orally
Description: Blood pressure was measured by the tail-cuff method at the start of experiments and after 2, 3, 4, 5 and 6 weeks.

[11] = test system: DOCA-salt SHRs; experiment: Histopathological findings in renal tissues of DOCA-salt SHR; format: in vivo
Text: After collecting urine and measuring blood pressure at 6 weeks, the animals was incised under anesthesia, exsanguinated from abdominal aorta and perfused with physiological saline via this site. The isolated kidney was fixed in a 10% formaldehyde solution, embedded in paraffin, then sliced to 4 μm in thickness by a microtome. Samples were stained with hematoxylin/eosin (HE) and periodic acid-Shiff. The incidences of histopathological findings on necrotizing glomerulitis and necrotizing arteriolitis were compared among the groups.

[12] = test system: DOCA-salt SHRs; details: in vivo, po, 10 mg/kg/day
Description: One kidney was removed from 8-week old SHRs (supplied from Charles River) except for a control group. Then, the animals were divided into the following three experimental groups. • 1) A group given drinking water only (control group); sample size n=8; • 2) A group of DOCA-salt SHRs prepared by giving 30 mg/kg b.w. of deoxycorticosterone acetate (DOCA) subcutaneously once a week and 1% saline as drinking water from one week after nephrectomy (DOCA group); n 4; • 3) A group of DOCA-salt SHRs administered BH4 (10 mg/kg b.w./day) orally (DOCA+BH4 group); n=6.
Urine was collected for 24 hours using a metabolic cage at the start of experiment and after 2, 3, 4, 5 and 6 (at the termination of the observation period) weeks. At the termination of the observation period, blood sample was collected from abdominal aorta under anesthesia with Phenobarbital.
Biopterin (BP), a metabolite of BH4, was measured by a HPLC according to the procedure of Fukushima and Nixon. The effects of BH4 administration are evaluated on the basis of change of BP level in urine.
The measured values were expressed as means±standard error and evaluated statistically using two-way ANOVA test. In the following analyses, the significant level sets p<0.05.

[13] = until termination of observation period
[14] = BH4 10 mg/kg b.w./day orally, kidney at 6 weeks

Question: For C[C@H](O)[C@H](O)C1CNc2nc(N)[nH]c(=O)c2N1 (stereo partly drawn) [(6R,S)-5,6,7,8-tetrahydrobiopterin], which toxicity [1] is on record?
Answer: The toxicity was “only slightly toxic”.

Question: Which acute toxicity [2] does the source give for C[C@H](O)[C@H](O)[C@H]1CNc2[nH]c(N)nc(=O)c2N1.Cl.Cl [BH4 dihydrochloride] here?
Answer: Its acute toxicity is “more than 2 g/kg (b.w.)”.

Question: Which Blood pressure ([3]; Start) does the source give for CC(O)C(O)C1CNc2nc(N)[nH]c(=O)c2N1 [BH4, (6R)-L-erythro-5,6,7,8-tetrahydrobiopterin] here?
Answer: Its Blood pressure is 105.72 mmHg.

Question: What about the Blood pressure ([3]; Week 2) of the same compound?
Answer: Its Blood pressure is 120.54 mmHg.

Question: What about the Blood pressure ([3]; Week 4) of the same compound?
Answer: The Blood pressure was 111.91 mmHg.

Question: What about the Blood pressure ([3]; Week 5) of the same compound?
Answer: The Blood pressure was 107.78 mmHg.

Question: And the “Change of blood pressure (in words)” value [3, 13]?
Answer: Its value is “stayed at normal blood pressures”.

Question: And the “Change of NO2/NO3 in urine (in words)” value [4]?
Answer: Its value is “showed an increase in the value”.

Question: What about the NO2/NO3 in urine ([4]; Start) of the same compound?
Answer: The NO2/NO3 in urine was 2.22 ± 0.7 µmol/day.

Question: What about the NO2/NO3 in urine ([4]; Week 4) of the same compound?
Answer: The NO2/NO3 in urine was 2 ± 0.55 µmol/day.

Question: What about the NO2/NO3 in urine ([4]; Week 5) of the same compound?
Answer: The NO2/NO3 in urine was 5.95 ± 1.9 µmol/day.

Question: What about the “Change of BP in urine (in words)” value [5] of the same compound?
Answer: The value was “showed an increase in the value of BP with time”.

Question: And the Body weight ([6]; Start)?
Answer: The Body weight was 383.40 g.

Question: And the Body weight ([6]; Week 2)?
Answer: Its Body weight is 386.40 ± 12.84 g.

Question: And the Body weight ([6]; Week 4)?
Answer: The Body weight was 431.20 ± 13.31 g.

Question: What about the Body weight ([6]; Week 5) of the same compound?
Answer: The Body weight was 446.80 ± 15.81 g.

Question: What about the “Body weight (in words)” value ([6]; control, DOCA and DOCA+BH4 groups compared) of the same compound?
Answer: Its value is “no significant difference”.

Question: What about the “expression of e-NOS in small vessels (immunostaining)” value [7] of the same compound?
Answer: The value was “comparable to the control group or slightly enhanced”.

Question: And the “expression of b-NOS in macula densa (immunostaining)” value [8]?
Answer: The value was “comparable to the control group or slightly enhanced”.

Question: What about the “expression of e-NOS mRNA” value [9] of the same compound?
Answer: The value was “significantly enhanced”.

Question: What about the Blood pressure ([10]; Start) of the same compound?
Answer: Its Blood pressure is 130.22 mmHg.

Question: And the Blood pressure ([10]; Week 2)?
Answer: The Blood pressure was 133.60 mmHg.

Question: What about the Blood pressure ([10]; Week 3) of the same compound?
Answer: Its Blood pressure is 143.63 mmHg.

Question: What about the Blood pressure ([10]; Week 4) of the same compound?
Answer: The Blood pressure was 150.90 mmHg.

Question: And the Blood pressure ([10]; Week 5)?
Answer: Its Blood pressure is 159.30 mmHg.

Question: What about the Blood pressure ([10]; Week 6) of the same compound?
Answer: Its Blood pressure is 162.95 mmHg.

Question: And the “Change of blood pressure (in words)” value [10, 13]?
Answer: The value was “showed the same blood pressures level as that of the control group”.

Question: And the “Percentage (%) of incidences of histopathological findings in renal tissues: Necrotizing angiitis” value [11, 14]?
Answer: Its value is 3.34 ± 0.94%.

Question: And the “Percentage (%) of incidences of histopathological findings in renal tissues: Necrotizing glomerulitis” value [11, 14]?
Answer: Its value is 2.47 ± 1.07%.

Question: What about the “Histopathological findings (in words)” value ([11]; oral administration of BH4) of the same compound?
Answer: Its value is “remarkably improved histopathological findings”.

Question: And the “Change of BP in urine (in words)” value [12]?
Answer: Its value is “showed an increase in the value of BP with time”.
